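Method: 48-hour compound exposure of cells in 96-well plates, five concentrations, linear interpolation of endpoints. At the GI50, growth is halved.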 Calls of active or inactive are those of the source. Rule as the data show it: active = GI50 up to about 1.1 µM and inactive = higher.
How the values were obtained:
Test in all cases: NCI tumour cell line growth inhibition, 48 h
[1] = test system: ACHN
[2] = test system: BT-549
[3] = test system: CCRF-CEM
[4] = test system: EKVX
[5] = test system: HCT-116
[6] = test system: Hs-578T
[7] = test system: K562
[8] = test system: LOX IMVI
[9] = test system: MCF7
[10] = test system: NCI-H226
[11] = test system: OVCAR-3
[12] = test system: OVCAR-8
[13] = test system: PC-3
[14] = test system: SF-268
[15] = test system: SK-MEL-28
[16] = test system: SK-MEL-2
[17] = test system: SR
[18] = test system: SW-620
[19] = test system: T47D
[20] = test system: U-251

Row | Compound | GI50 [1] | GI50 [2] | GI50 [3] | GI50 [4] | GI50 [5] | GI50 [6] | GI50 [7] | GI50 [8] | GI50 [9] | GI50 [10] | GI50 [11] | GI50 [12] | GI50 [13] | GI50 [14] | GI50 [15] | GI50 [16] | GI50 [17] | GI50 [18] | GI50 [19] | GI50 [20]
1 | Cc1cc2c(c(C(=O)NCCC(=O)O)c1)Oc1c(cc(C)cc1C(=O)NCCC(=O)O)S2 | > 100 µM (inactive) | > 100 µM (inactive) | > 100 µM (inactive) | > 100 µM (inactive) | > 100 µM (inactive) | > 100 µM (inactive) | > 100 µM (inactive) | > 100 µM (inactive) | > 100 µM (inactive) | > 100 µM (inactive) | > 100 µM (inactive) | > 100 µM (inactive) | > 100 µM (inactive) | > 100 µM (inactive) | > 100 µM (inactive) | > 100 µM (inactive) | > 100 µM (inactive) | > 100 µM (inactive) | > 100 µM (inactive) | > 100 µM (inactive)
2 | O=S(=O)(Nc1nc2ccccc2nc1Nc1ccc2ccccc2c1)c1ccccc1 | 17.3 µM (inactive) | 15.8 µM (inactive) | 20 µM (inactive) | 11.7 µM (inactive) | 7.8 µM (inactive) | 14.3 µM (inactive) | 22.5 µM (inactive) | 17.8 µM (inactive) | 10.9 µM (inactive) | 16.7 µM (inactive) | 1.87 µM (inactive) | 14.4 µM (inactive) | 3.3 µM (inactive) | 17.9 µM (inactive) | 12.1 µM (inactive) | 3.19 µM (inactive) | 13.2 µM (inactive) | 7.38 µM (inactive) | 5.68 µM (inactive) | 5.78 µM (inactive)
3 | CCC1CC(=O)N(SCC(N)C(=O)O)C1=O (stereo not given) | > 100 µM (inactive) | > 100 µM (inactive) | > 100 µM (inactive) | > 100 µM (inactive) | > 100 µM (inactive) | > 100 µM (inactive) | > 100 µM (inactive) | > 100 µM (inactive) | > 100 µM (inactive) | > 100 µM (inactive) | > 100 µM (inactive) | > 100 µM (inactive) | > 100 µM (inactive) | > 100 µM (inactive) | > 100 µM (inactive) | > 100 µM (inactive) | > 100 µM (inactive) | > 100 µM (inactive) | > 100 µM (inactive) | > 100 µM (inactive)
4 | CC(C)C[S+]1C2=C(CC(C)(C)CC2=O)[N-]c2ccccc21 (stereo not given) | > 100 µM (inactive) | > 100 µM (inactive) | > 100 µM (inactive) | > 100 µM (inactive) | > 100 µM (inactive) | > 100 µM (inactive) | 71.9 µM (inactive) | > 100 µM (inactive) | > 100 µM (inactive) | > 100 µM (inactive) | > 100 µM (inactive) | > 100 µM (inactive) | > 100 µM (inactive) | > 100 µM (inactive) | > 100 µM (inactive) | > 100 µM (inactive) | 11.3 µM (inactive) | > 100 µM (inactive) | > 100 µM (inactive) | > 100 µM (inactive)
5 | c1ccc2c(c1)-c1ccccc1C2N1CC2CCC(CC2)C1 | 23 µM (inactive) | 16.8 µM (inactive) | 19.5 µM (inactive) | 21.7 µM (inactive) | 20.7 µM (inactive) | 3.37 µM (inactive) | 17.3 µM (inactive) | 18.7 µM (inactive) | 17.5 µM (inactive) | 19.5 µM (inactive) | 20.4 µM (inactive) | 30 µM (inactive) | 27.6 µM (inactive) | 15.5 µM (inactive) | 33.3 µM (inactive) | 16 µM (inactive) | 20.6 µM (inactive) | 22.1 µM (inactive) | 20.7 µM (inactive) | 17.1 µM (inactive)
6 | CCCCCCCC/C=C1\CCC(CN2CCOCC2)C1=O (stereo not given) | 16.4 µM (inactive) | 10.8 µM (inactive) | 2.79 µM (inactive) | 17.7 µM (inactive) | 3.53 µM (inactive) | 4.36 µM (inactive) | 2.74 µM (inactive) | 3.43 µM (inactive) | 1.94 µM (inactive) | 17.4 µM (inactive) | 7.5 µM (inactive) | 3.83 µM (inactive) | 11.2 µM (inactive) | 9.35 µM (inactive) | 9.35 µM (inactive) | 14.8 µM (inactive) | 2.13 µM (inactive) | 2.7 µM (inactive) | 1.85 µM (inactive) | 14.8 µM (inactive)
7 | Nn1c(Sc2nc3ccccc3c(=O)n2N)nc2ccccc2c1=O | 8.95 µM (inactive) | 1.77 µM (inactive) | 0.94 µM (active) | 17.5 µM (inactive) | 2.99 µM (inactive) | 17.1 µM (inactive) | 2.12 µM (inactive) | 1.64 µM (inactive) | 4.1 µM (inactive) | 1.71 µM (inactive) | 11.1 µM (inactive) | 2.77 µM (inactive) | 11.7 µM (inactive) | 8.49 µM (inactive) | 4.84 µM (inactive) | 3.24 µM (inactive) | 2.02 µM (inactive) | 2.29 µM (inactive) | 5.09 µM (inactive) | 7.03 µM (inactive)
8 | CCC(=O)/C=C/c1ccccc1 | 79.1 µM (inactive) | 32.7 µM (inactive) | 37.2 µM (inactive) | > 100 µM (inactive) | 31.3 µM (inactive) | 21.8 µM (inactive) | 25.6 µM (inactive) | 22.8 µM (inactive) | 31.7 µM (inactive) | > 100 µM (inactive) | 67.6 µM (inactive) | 51.3 µM (inactive) | > 100 µM (inactive) | 94 µM (inactive) | 54 µM (inactive) | > 100 µM (inactive) | 42.8 µM (inactive) | 32.5 µM (inactive) | > 100 µM (inactive) | 37.9 µM (inactive)
9 | CCCC(C)c1c(Cl)nc(Cl)nc1Cl (stereo not given) | 4.21 µM (inactive) | 1.99 µM (inactive) | 0.189 µM (active) | 18.3 µM (inactive) | 1.73 µM (inactive) | 9.38 µM (inactive) | 3.37 µM (inactive) | 1.66 µM (inactive) | 8.55 µM (inactive) | 4.34 µM (inactive) | 9.57 µM (inactive) | 19.1 µM (inactive) | 14.8 µM (inactive) | 10.3 µM (inactive) | 3.52 µM (inactive) | 23.9 µM (inactive) | 4.58 µM (inactive) | 4.23 µM (inactive) | 6.38 µM (inactive) | 9.38 µM (inactive)
10 | O=C(O)CCN(CCC(=O)O)c1ccc(/C=C2\SC(=S)NC2=O)cc1 | > 100 µM (inactive) | > 100 µM (inactive) | > 100 µM (inactive) | > 100 µM (inactive) | > 100 µM (inactive) | > 100 µM (inactive) | > 100 µM (inactive) | > 100 µM (inactive) | > 100 µM (inactive) | > 100 µM (inactive) | > 100 µM (inactive) | > 100 µM (inactive) | > 100 µM (inactive) | > 100 µM (inactive) | > 100 µM (inactive) | > 100 µM (inactive) | > 100 µM (inactive) | > 100 µM (inactive) | > 100 µM (inactive) | > 100 µM (inactive)
